The species named for experiment [1] is Rattus norvegicus. The experiment in a line: Tested in vitro for the dose response curve in rat cortical wedge preparation.
Experiment [2] deals with Glutamate receptor ionotropic, AMPA (Rattus norvegicus, UniProt P19490+P19491+P19492+P19493). The experiment in a line: Tested for the inhibitory activity of against Ionotropic glutamate receptor AMPA by [3H]- AMPA binding assay. The format is protein-complex assay.

The source of these data is ChEMBL document CHEMBL1150998, “Enzymatic resolution of AMPA by use of -chymotrypsin” (Bioorg Med Chem Lett, 1993).

In experiment [1], `Cc1onc(O)c1CC(N)C(=O)O` (single isomer, unassigned; form 1) came in with an EC50 of 3.8 µM.

In turn, `Cc1onc(O)c1CC(N)C(=O)O` (single isomer, unassigned; form 2) came in with an EC50 in experiment [1] of 580 µM.

In the case of `CCOC(=O)C(N)Cc1c(OCC)noc1C` (stereo not drawn), the 50% inhibitory concentration (IC50) in experiment [2] was greater than 100 µM.

For orientation: EC50 means the concentration needed to bring the measured effect to its halfway point. A higher EC50 goes with a need for much substance. For orientation: IC50 means the concentration at which inhibition is half-maximal.
